Experimental findings from PubChem BioAssay (NCI) are described below.

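1) Cells in 96-well plates. 2) Compound, 48 h, 5 concentrations. 3) Linear interpolation between surrounding doses. 4) Unreached endpoint = highest concentration. TGI: total growth inhibition.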 Where only a bound is given, the exact number is not on record here.

Some test systems named below: NCI-H460 lung; M14 melanoma; RPMI-8226 leukemia; PC-3 prostate; A549 NSCLC; SR leukemia; SK-MEL-2 melanoma; T-47D breast; HCT-116 colon; MCF7 breast; HOP-62 NSCLC; SW-620 colon; CCRF-CEM leukemia; SK-OV-3 ovarian; RXF 393 renal; OVCAR-4 ovarian; NCI-H522 lung.
What all share (assay): growth of human tumour cells (NCI), 48 h

For `CCOC(=O)CCC(NC(=O)C(N)c1ccc([N+](=O)[O-])cc1)C(=O)NC(CCC(=O)OCC)C(=O)OCC` (configuration not stated), the TGI in the test on NCI-H460 lung, with M14 melanoma, with RPMI-8226 leukemia, with PC-3 prostate, in the test with A549 NSCLC and with SR leukemia was > 100 µM each time. Further, the TGI in the test on SK-MEL-2 melanoma, with T-47D breast, in the test with HCT-116 colon, in the test with MCF7 breast, in the test on HOP-62 NSCLC and with SW-620 colon was > 100 µM throughout.
In the case of `CSC1=C(C(=O)Nc2ccc(C)cc2)C(N)=NC1=O`, the TGI in the test with NCI-H460 lung, in the test with M14 melanoma, in the test with RPMI-8226 leukemia, with SR leukemia, with CCRF-CEM leukemia and in the test on T-47D breast was > 100 µM in each case. The TGI in the test on HCT-116 colon, in the test on SK-OV-3 ovarian, with MCF7 breast, with RXF 393 renal, in the test on OVCAR-4 ovarian and with SW-620 colon was > 100 µM each time.
`NS(=O)(=O)c1nnc(NC(=O)c2cccc([N+](=O)[O-])c2)s1`: the TGI in the test on NCI-H460 lung, in the test with M14 melanoma, in the test with RPMI-8226 leukemia, in the test with A549 NSCLC, with SR leukemia and in the test with SK-MEL-2 melanoma was > 100 µM in each case. The TGI with T-47D breast, with HCT-116 colon, in the test on SK-OV-3 ovarian, in the test with MCF7 breast, in the test with RXF 393 renal and in the test on HOP-62 NSCLC was > 100 µM in each case. The TGI in the test on OVCAR-4 ovarian, with NCI-H522 lung and with SW-620 colon was > 100 µM throughout.
Regarding `Cc1nc(C)c(N2CCN(C(=O)O)CC2)c(=O)[nH]1`, the TGI with NCI-H460 lung, in the test with M14 melanoma, with RPMI-8226 leukemia, with PC-3 prostate, in the test with A549 NSCLC and with SR leukemia was > 100 µM each time. The TGI with CCRF-CEM leukemia, in the test with T-47D breast, in the test on HCT-116 colon, in the test on SK-OV-3 ovarian, in the test on MCF7 breast and in the test on RXF 393 renal was > 100 µM in each case. Further, the TGI in the test with HOP-62 NSCLC, with OVCAR-4 ovarian, with NCI-H522 lung and in the test with SW-620 colon was > 100 µM throughout.
Regarding `CCO/C(O)=C(/C(=N)N1CCCC1)C(=O)Nc1cccc(Cl)c1`, the TGI in the test on NCI-H460 lung, in the test with M14 melanoma, in the test on RPMI-8226 leukemia, in the test with PC-3 prostate, with A549 NSCLC and with CCRF-CEM leukemia was > 100 µM each time. The TGI in the test on SK-MEL-2 melanoma, with T-47D breast, with HCT-116 colon, in the test with SK-OV-3 ovarian, in the test on MCF7 breast and in the test with RXF 393 renal was > 100 µM each time. Besides, the TGI in the test on HOP-62 NSCLC, in the test on OVCAR-4 ovarian, in the test with NCI-H522 lung and with SW-620 colon was > 100 µM throughout.
For `CN1N=C(c2ccccc2)C(C(c2ccccc2[N+](=O)[O-])C2C(=O)N(C)N=C2c2ccccc2)C1=O` (configuration not stated), the TGI in the test with NCI-H460 lung was > 100 µM; in the test with M14 melanoma, > 100 µM; in the test on RPMI-8226 leukemia, > 100 µM; in the test with PC-3 prostate, > 100 µM; with A549 NSCLC, > 100 µM; in the test on CCRF-CEM leukemia, 60.1 µM. For the same compound, the TGI with SK-MEL-2 melanoma, in the test with T-47D breast, in the test with HCT-116 colon, in the test with SK-OV-3 ovarian, in the test on MCF7 breast and with RXF 393 renal was > 100 µM each time. Further, the TGI with HOP-62 NSCLC, in the test on OVCAR-4 ovarian, in the test on NCI-H522 lung and in the test on SW-620 colon was > 100 µM each time.
As for `COc1cccc(C=C2N=C(c3ccccc3)N(n3c(-c4ccccc4)nc4ccccc4c3=O)C2=O)c1`, the TGI in the test on NCI-H460 lung, in the test on M14 melanoma, in the test on RPMI-8226 leukemia, with PC-3 prostate, with A549 NSCLC and with SR leukemia was > 100 µM each time. The TGI in the test on CCRF-CEM leukemia, with T-47D breast, in the test with HCT-116 colon, in the test on SK-OV-3 ovarian, with MCF7 breast and with HOP-62 NSCLC was > 100 µM each time. The TGI was 62.1 µM in the test on NCI-H522 lung and > 100 µM in the test on SW-620 colon.
Turning to `COc1cc(COC(=O)N2CC=CC2C(=O)O)c([N+](=O)[O-])cc1OC` (configuration not stated), the TGI in the test with NCI-H460 lung, with M14 melanoma, in the test with RPMI-8226 leukemia, in the test on PC-3 prostate, in the test on A549 NSCLC and with SR leukemia was > 100 µM in each case. Moreover, the TGI in the test with CCRF-CEM leukemia, with T-47D breast, in the test on HCT-116 colon, in the test on SK-OV-3 ovarian, in the test with MCF7 breast and in the test on RXF 393 renal was > 100 µM each time. In addition, the TGI in the test on HOP-62 NSCLC and with SW-620 colon was > 100 µM throughout.
Take `OC(Cc1ccc2ccccc2n1)(C(F)(F)Cl)C(F)(F)Cl`: the TGI in the test on NCI-H460 lung, in the test with M14 melanoma, in the test on PC-3 prostate, in the test on A549 NSCLC, in the test with SR leukemia and with CCRF-CEM leukemia was > 10 µM throughout. The TGI with T-47D breast, in the test with HCT-116 colon, in the test with SK-OV-3 ovarian, with MCF7 breast, in the test with HOP-62 NSCLC and in the test with OVCAR-4 ovarian was > 10 µM each time. For the same compound, the TGI in the test on NCI-H522 lung and with SW-620 colon was > 10 µM each time.
Take `CCOC(=O)c1sc2c(c1O)c(=O)n(-c1ccccc1)c(=S)n2-c1ccccc1`: the TGI in the test on NCI-H460 lung is > 100 µM; with M14 melanoma it was > 100 µM; in the test with RPMI-8226 leukemia, > 100 µM; with A549 NSCLC it was > 100 µM; in the test with SR leukemia, 46.9 µM; in the test with CCRF-CEM leukemia it was > 100 µM. Also, the TGI with SK-MEL-2 melanoma, in the test with T-47D breast, in the test on MCF7 breast, in the test with RXF 393 renal, with OVCAR-4 ovarian and in the test on NCI-H522 lung was > 100 µM in each case. The TGI in the test with SW-620 colon was > 100 µM.
